# According to ChEMBL document CHEMBL1201862, “PubChem BioAssay data set” (2004):
#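 Values below derive from 48-hour exposures of cells grown in 96-well plates, with endpoints linearly interpolated between the two concentrations bracketing the appropriate inhibition level. GI50: concentration for 50% inhibition of growth.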 Activity calls are given as the source filed them. Rule as the data show it: active = GI50 up to about 1.1 µM and inactive = higher.
# Experiments:
# Experiment in all cases: DTP human tumour cell line panel, 48 h
# 786-0 = tested on: 786-0
# A498 = tested on: A498
# A549 = tested on: A549
# ACHN = tested on: ACHN
# BT-549 = tested on: BT-549
# CAKI-1 = tested on: CAKI-1
# CCRF-CEM = tested on: CCRF-CEM
# COLO 205 = tested on: COLO 205
# DU-145 = tested on: DU-145
# EKVX = tested on: EKVX
# HCT-116 = tested on: HCT-116
# HCT-15 = tested on: HCT-15
# HL-60 = tested on: HL-60
# HOP-62 = tested on: HOP-62
# HOP-92 = tested on: HOP-92
# HT-29 = tested on: HT-29
# Hs-578T = tested on: Hs-578T
# IGROV-1 = tested on: IGROV-1
# K562 = tested on: K562
# KM12 = tested on: KM12
# LOX IMVI = tested on: LOX IMVI
# M14 = tested on: M14
# MCF7 = tested on: MCF7
# MDA-MB-231 = tested on: MDA-MB-231
# MDA-MB-435 = tested on: MDA-MB-435
# MDA-N = tested on: MDA-N
# MOLT-4 = tested on: MOLT-4
# Malme-3M = tested on: Malme-3M
# NCI-H226 = tested on: NCI-H226
# NCI-H23 = tested on: NCI-H23
# NCI-H460 = tested on: NCI-H460
# NCI-H522 = tested on: NCI-H522
# NCI/ADR-RES = tested on: NCI/ADR-RES
# OVCAR-3 = tested on: OVCAR-3
# OVCAR-4 = tested on: OVCAR-4
# OVCAR-5 = tested on: OVCAR-5
# OVCAR-8 = tested on: OVCAR-8
# PC-3 = tested on: PC-3
# RPMI-8226 = tested on: RPMI-8226
# RXF 393 = tested on: RXF 393
# SF-268 = tested on: SF-268
# SF-295 = tested on: SF-295
# SF-539 = tested on: SF-539
# SK-MEL-28 = tested on: SK-MEL-28
# SK-MEL-2 = tested on: SK-MEL-2
# SK-MEL-5 = tested on: SK-MEL-5
# SK-OV-3 = tested on: SK-OV-3
# SN12C = tested on: SN12C
# SNB-19 = tested on: SNB-19
# SR = tested on: SR
# SW-620 = tested on: SW-620
# T47D = tested on: T47D
# TK-10 = tested on: TK-10
# U-251 = tested on: U-251
# UACC-257 = tested on: UACC-257
# UACC-62 = tested on: UACC-62
# UO-31 = tested on: UO-31
# HCC 2998 = tested on: HCC 2998
# SNB-75 = tested on: SNB-75
smiles,measurement,setting,value
O=C(O)c1ccc(CNCc2ccccc2)cc1,GI50,786-0,> 100 µM (inactive)
same,GI50,A498,> 100 µM (inactive)
same,GI50,A549,> 100 µM (inactive)
same,GI50,ACHN,> 100 µM (inactive)
same,GI50,BT-549,> 100 µM (inactive)
same,GI50,CAKI-1,> 100 µM (inactive)
same,GI50,CCRF-CEM,> 100 µM (inactive)
same,GI50,COLO 205,> 100 µM (inactive)
same,GI50,DU-145,> 100 µM (inactive)
same,GI50,EKVX,> 100 µM (inactive)
same,GI50,HCT-116,> 100 µM (inactive)
same,GI50,HCT-15,> 100 µM
same,GI50,HL-60,> 100 µM (inactive)
same,GI50,HOP-62,> 100 µM (inactive)
same,GI50,HOP-92,> 100 µM (inactive)
same,GI50,HT-29,> 100 µM (inactive)
same,GI50,Hs-578T,> 100 µM (inactive)
same,GI50,IGROV-1,> 100 µM (inactive)
same,GI50,K562,> 100 µM (inactive)
same,GI50,KM12,> 100 µM (inactive)
same,GI50,LOX IMVI,> 100 µM (inactive)
same,GI50,M14,> 100 µM (inactive)
same,GI50,MCF7,> 100 µM (inactive)
same,GI50,MDA-MB-231,> 100 µM (inactive)
same,GI50,MDA-MB-435,> 100 µM (inactive)
same,GI50,MDA-N,> 100 µM (inactive)
same,GI50,MOLT-4,> 100 µM (inactive)
same,GI50,Malme-3M,> 100 µM (inactive)
same,GI50,NCI-H226,> 100 µM (inactive)
same,GI50,NCI-H23,> 100 µM (inactive)
same,GI50,NCI-H460,> 100 µM (inactive)
same,GI50,NCI-H522,> 100 µM (inactive)
same,GI50,NCI/ADR-RES,> 100 µM (inactive)
same,GI50,OVCAR-3,> 100 µM (inactive)
same,GI50,OVCAR-4,> 100 µM (inactive)
same,GI50,OVCAR-5,> 100 µM (inactive)
same,GI50,OVCAR-8,> 100 µM (inactive)
same,GI50,PC-3,> 100 µM (inactive)
same,GI50,RPMI-8226,> 100 µM (inactive)
same,GI50,RXF 393,> 100 µM (inactive)
same,GI50,SF-268,> 100 µM (inactive)
same,GI50,SF-295,> 100 µM (inactive)
same,GI50,SF-539,> 100 µM (inactive)
same,GI50,SK-MEL-28,> 100 µM (inactive)
same,GI50,SK-MEL-2,> 100 µM (inactive)
same,GI50,SK-MEL-5,> 100 µM (inactive)
same,GI50,SK-OV-3,> 100 µM (inactive)
same,GI50,SN12C,> 100 µM (inactive)
same,GI50,SNB-19,> 100 µM (inactive)
same,GI50,SR,> 100 µM (inactive)
same,GI50,SW-620,> 100 µM (inactive)
same,GI50,T47D,> 100 µM (inactive)
same,GI50,TK-10,> 100 µM (inactive)
same,GI50,U-251,> 100 µM (inactive)
same,GI50,UACC-257,> 100 µM (inactive)
same,GI50,UACC-62,> 100 µM (inactive)
same,GI50,UO-31,> 100 µM (inactive)
C=CC(OC(=O)C(C)C)c1ccc(OC(=O)C(C)C)cc1 (configuration not stated),GI50,786-0,4.69 µM (inactive)
same,GI50,A498,17.6 µM (inactive)
same,GI50,A549,19.5 µM (inactive)
same,GI50,ACHN,14.6 µM (inactive)
same,GI50,BT-549,17.4 µM (inactive)
same,GI50,CAKI-1,2.56 µM (inactive)
same,GI50,CCRF-CEM,3.24 µM (inactive)
same,GI50,COLO 205,8.87 µM (inactive)
same,GI50,DU-145,32.9 µM (inactive)
same,GI50,EKVX,22.4 µM (inactive)
same,GI50,HCC 2998,13.1 µM (inactive)
same,GI50,HCT-116,4.06 µM (inactive)
same,GI50,HCT-15,5.74 µM
same,GI50,HL-60,2.92 µM (inactive)
same,GI50,HOP-62,9.95 µM (inactive)
same,GI50,HOP-92,16.7 µM (inactive)
same,GI50,HT-29,11.1 µM (inactive)
same,GI50,Hs-578T,35.7 µM (inactive)
same,GI50,IGROV-1,18.4 µM (inactive)
same,GI50,K562,7.96 µM (inactive)
same,GI50,KM12,2.21 µM (inactive)
same,GI50,LOX IMVI,4.47 µM (inactive)
same,GI50,M14,7.67 µM (inactive)
same,GI50,MCF7,3.3 µM (inactive)
same,GI50,MDA-MB-231,16.4 µM (inactive)
same,GI50,MDA-MB-435,13.6 µM (inactive)
same,GI50,MDA-N,12.5 µM (inactive)
same,GI50,MOLT-4,6.93 µM (inactive)
same,GI50,Malme-3M,7.57 µM (inactive)
same,GI50,NCI-H226,20.6 µM (inactive)
same,GI50,NCI-H23,20 µM (inactive)
same,GI50,NCI-H460,13.9 µM (inactive)
same,GI50,NCI-H522,1.73 µM (inactive)
same,GI50,NCI/ADR-RES,14.2 µM (inactive)
same,GI50,OVCAR-3,16.9 µM (inactive)
same,GI50,OVCAR-4,14.8 µM (inactive)
same,GI50,OVCAR-5,6.5 µM (inactive)
same,GI50,OVCAR-8,17.5 µM (inactive)
same,GI50,PC-3,8.97 µM (inactive)
same,GI50,RPMI-8226,2.04 µM (inactive)
same,GI50,SF-268,26.2 µM (inactive)
same,GI50,SF-295,15.6 µM (inactive)
same,GI50,SF-539,17 µM (inactive)
same,GI50,SK-MEL-28,10.6 µM (inactive)
same,GI50,SK-MEL-2,11.2 µM (inactive)
same,GI50,SK-MEL-5,16.3 µM (inactive)
same,GI50,SK-OV-3,19.8 µM (inactive)
same,GI50,SN12C,14 µM (inactive)
same,GI50,SNB-19,14.9 µM (inactive)
same,GI50,SNB-75,15 µM (inactive)
same,GI50,SR,6.92 µM (inactive)
same,GI50,SW-620,4.06 µM (inactive)
same,GI50,T47D,21.6 µM (inactive)
same,GI50,U-251,4.33 µM (inactive)
same,GI50,UACC-257,14.7 µM (inactive)
same,GI50,UACC-62,15.8 µM (inactive)
same,GI50,UO-31,17.2 µM (inactive)
CCCNC(=O)CCC(C)[C@H]1CCC2C3C(C[C@H](OC(C)=O)[C@@]21C)[C@@]1(C)CCC2(C[C@H]1C[C@H]3OC(C)=O)OOC1(CCCCC1)OO2 (some centres not stated),GI50,786-0,2.31 µM (inactive)
same,GI50,A498,33.7 µM (inactive)
same,GI50,A549,0.416 µM (active)
same,GI50,ACHN,1.24 µM (inactive)
same,GI50,BT-549,2.55 µM (inactive)
same,GI50,CAKI-1,0.367 µM (active)
same,GI50,CCRF-CEM,1.73 µM (inactive)
same,GI50,COLO 205,1.75 µM (inactive)
same,GI50,DU-145,1.85 µM (inactive)
same,GI50,EKVX,1.58 µM (inactive)
same,GI50,HCC 2998,2.7 µM (inactive)
same,GI50,HCT-116,2.93 µM (inactive)
same,GI50,HCT-15,3.68 µM
same,GI50,HL-60,1.51 µM (inactive)
same,GI50,HOP-62,0.261 µM (active)
same,GI50,HT-29,3.96 µM (inactive)
same,GI50,Hs-578T,7.33 µM (inactive)
same,GI50,IGROV-1,0.478 µM (active)
same,GI50,K562,4.05 µM (inactive)
same,GI50,KM12,1.44 µM (inactive)
same,GI50,LOX IMVI,1.84 µM (inactive)
same,GI50,M14,5.02 µM (inactive)
same,GI50,MCF7,3.04 µM (inactive)
same,GI50,MDA-MB-231,1.94 µM (inactive)
same,GI50,MDA-MB-435,2.23 µM (inactive)
same,GI50,MDA-N,3.05 µM (inactive)
same,GI50,MOLT-4,1.67 µM (inactive)
same,GI50,Malme-3M,2.13 µM (inactive)
same,GI50,NCI-H226,3.84 µM (inactive)
same,GI50,NCI-H23,1.12 µM (inactive)
same,GI50,NCI-H460,1.67 µM (inactive)
same,GI50,NCI-H522,0.473 µM (active)
same,GI50,NCI/ADR-RES,2.39 µM (inactive)
same,GI50,OVCAR-3,1.87 µM (inactive)
same,GI50,OVCAR-4,1.74 µM (inactive)
same,GI50,OVCAR-5,2.67 µM (inactive)
same,GI50,OVCAR-8,1.42 µM (inactive)
same,GI50,PC-3,1.69 µM (inactive)
same,GI50,RPMI-8226,0.923 µM (active)
same,GI50,RXF 393,3.24 µM (inactive)
same,GI50,SF-268,2.02 µM (inactive)
same,GI50,SF-295,3.79 µM (inactive)
same,GI50,SF-539,3.66 µM (inactive)
same,GI50,SK-MEL-28,55.5 µM (inactive)
same,GI50,SK-MEL-2,2 µM (inactive)
same,GI50,SK-MEL-5,2.46 µM (inactive)
same,GI50,SK-OV-3,24.9 µM (inactive)
same,GI50,SN12C,3.01 µM (inactive)
same,GI50,SNB-19,7.18 µM (inactive)
same,GI50,SNB-75,1.9 µM (inactive)
same,GI50,SR,1.32 µM (inactive)
same,GI50,SW-620,4.58 µM (inactive)
same,GI50,T47D,2.11 µM (inactive)
same,GI50,TK-10,1.95 µM (inactive)
same,GI50,U-251,1.85 µM (inactive)
same,GI50,UACC-257,5.3 µM (inactive)
same,GI50,UACC-62,2.01 µM (inactive)
same,GI50,UO-31,0.0893 µM (active)
